Experimental findings from patent US20130261132A1, “CALCIUM-SENSING RECEPTOR-ACTIVE COMPOUNDS” (LEO PHARMA A/S, priority 2010, published 2013) are described below.

Data set [1] is described as follows: Clearance in human liver microsomes. To be noted: hepatic extraction ratio; test compound 0.5 μM, microsomes 0.5 mg/mL, NADPH 1 mM, 37° C. It counts as in vitro ADME. How it is done: Test compound concentration is 0.5 μM, microsome concentration is 0.5 mg/mL and NADPH concentration is 1 mM in the incubation. The described method is performed by the liquid handling system Tecan RSP and is based on a 96-well format.
Control incubations with test compound without NADPH and test compound without microsomes are conducted to investigate non-CYP mediated metabolism and stability in phosphate buffer at 37° C., respectively.
The human liver microsomal suspension in phosphate buffer is mixed with NADPH. The mixture is pre-heated (7 min) to 37° C. Test compound is added, and the mixture is incubated for 30 minutes. Incubations are run in duplicate. Samples are withdrawn at predetermined stop times and mixed with methanol containing internal standard (IS) to terminate all enzyme activity and precipitate proteins. A control without NADPH (to detect problems such as nonspecific protein binding, heat instability or non-CYP mediated metabolism) and a control without microsomes (for assessing compound stability in the absence of any active enzymes) are tested.
The percentage of organic solvent in the incubations is less than 1%. Careful inspections of reagents are performed prior to the start of any experiment to ensure all reagents are in solution.
The 96-well plates are centrifuged. Test compound depletion, using a compound specific LC/MS/MS method, is determined.
The logarithm of the peak area ratios of test compound to internal standard (IS) versus incubation time is plotted in a graph.
The rate constant (k) (min^−1) of test compound depletion is calculated from the linear part of the curve and the half-time (t1/2) in minutes can be calculated from the rate constant (Eq. 2).
Intrinsic clearance (CIint) (mL/min/mg protein) is calculated from: […]
where c is the microsomal protein concentration in mg/mL.
Conversion to apparent clearance (CIapp) (mL/min/kg) is done by Eq. 4:
CIapp=CIint×a×b/d (Eq. 4)
where a, b and d are the scaling factors for normalizing CIint to human body weight.
a: 45 (microsomal protein/liver weight (mg/g))
b: 1500 (liver weight (g))
Hepatic clearance (CIh) (mL/min/kg) based on the well-stirred model is described as followed:
CIh=(CIapp·Q)/(CIapp+Q) (Eq. 5)
where Q is the liver blood flow in mL/min/kg (20 in humans).
Dividing hepatic clearance with liver blood flow, the hepatic extraction ratio (%) can be calculated:
Apparent clearance below approximately 10 mL/min/kg human body weight (corresponding to extraction ratio of approx. 33%) is considered as low clearance (high metabolic stability). Apparent intrinsic clearance above approximately 60 mL/min/kg human body weight (corresponding to extraction ratio of approx. 75%) is considered as high clearance (low metabolic stability).

The target in data set [2] is T1, human CaSR (Homo sapiens, UniProt P41180).
T1 sequence (P41180 20-1078): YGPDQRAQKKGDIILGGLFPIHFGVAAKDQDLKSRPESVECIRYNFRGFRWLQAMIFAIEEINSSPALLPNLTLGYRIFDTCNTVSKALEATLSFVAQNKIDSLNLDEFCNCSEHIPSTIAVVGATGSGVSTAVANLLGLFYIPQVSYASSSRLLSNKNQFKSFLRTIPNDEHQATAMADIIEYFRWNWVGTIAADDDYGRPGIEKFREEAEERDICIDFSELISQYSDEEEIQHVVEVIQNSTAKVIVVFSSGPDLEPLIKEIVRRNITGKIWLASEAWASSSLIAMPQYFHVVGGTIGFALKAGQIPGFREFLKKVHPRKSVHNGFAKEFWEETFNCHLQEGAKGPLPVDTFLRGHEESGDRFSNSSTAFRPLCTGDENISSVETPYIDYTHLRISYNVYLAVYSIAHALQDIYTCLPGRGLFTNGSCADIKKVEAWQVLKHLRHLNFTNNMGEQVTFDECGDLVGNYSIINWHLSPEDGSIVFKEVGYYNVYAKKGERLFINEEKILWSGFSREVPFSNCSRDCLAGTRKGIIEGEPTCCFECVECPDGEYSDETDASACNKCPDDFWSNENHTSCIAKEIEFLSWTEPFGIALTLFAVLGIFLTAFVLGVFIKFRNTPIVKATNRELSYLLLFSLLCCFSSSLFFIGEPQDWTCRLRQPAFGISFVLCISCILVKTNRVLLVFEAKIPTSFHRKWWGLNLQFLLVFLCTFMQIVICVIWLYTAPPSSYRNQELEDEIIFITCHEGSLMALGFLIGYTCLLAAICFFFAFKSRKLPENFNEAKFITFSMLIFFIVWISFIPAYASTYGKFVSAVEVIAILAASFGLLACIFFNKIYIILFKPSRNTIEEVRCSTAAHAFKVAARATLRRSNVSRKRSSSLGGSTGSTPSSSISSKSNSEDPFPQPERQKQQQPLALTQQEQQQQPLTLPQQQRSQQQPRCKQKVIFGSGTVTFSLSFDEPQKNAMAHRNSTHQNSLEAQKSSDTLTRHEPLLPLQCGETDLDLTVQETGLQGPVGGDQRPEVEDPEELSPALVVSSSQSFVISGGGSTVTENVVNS
Nature of the data set: Functional whole cell assay (modulation of human CaSR), IP1 accumulation in CHO-K1 cells. It counts as cell-based. The following applies: CHO-K1 cells stably expressing human CaSR, final Ca2+ 1.9 mM, IP1 readout; concentration producing 50% of maximum agonistic response. From the text: The assay investigates a compound's functional ability to act as a biological positive modulator on the human CaSR. Activation of the receptor expressed on CHO-K1 cells is detected through the G alpha q pathway, the activation of phospholipase C and the accumulation of intracellular inositol phosphate (IP) as described earlier [Sandrine Ferry, Bruno Chatel, Robert H. Dodd, Christine Lair, Danielle Gully, Jean-Pierre Maffrand, and Martial Ruat. Effects of Divalent Cations and of a Calcimimetic on Adrenocorticotropic Hormone Release in Pituitary Tumor Cells. Biochemical and biophysical research Communications 238, 866-873 (1997)]. The human CaSR is stably expressed on a CHO-K1 cell clone, stimulated with a basal level of calcium and challenged with the tested compound. The level of IP1 is determined using the IP-One Terbium htrf kit (Cisbio, France). CHO-K1 cells not transfected with the CaSR fail to elicit an IP1 response upon calcium and/or compound stimulation.
The ORF coding for the human CaSR (genebank: NM_000388) was acquired from Invitrogen Corp, USA and subsequently cloned into the mammalian expression vector pCDA3.1.
CHO-K1 cells were transfected using Lipofectamine according to manufacturer's protocol (400.000 cells/well were seeded in a 6-well plate and transfected after 24 hours using 2 μg DNA and 5 μl lipofectamine). After another 24 hours the cells were detached, seeded and subjected to 1 mg/ml of G-418. Following 7 days growth single clones were picked, the CaSR expression evaluated using the 5C10 antibody against CaSR, the clones with the highest expression were selected and tested for functional response. The preferred clone was cultured according to standard procedures described in ATCC (American Type Culture Collection) protocols for CHO-K1 with the addition of 500 μg/ml G-418.
On the assay day, cells were thawed, harvested and resuspended to 4*10^6 cells/ml in stimulation buffer (containing: Hepes 10 mM, MgCl2 0.5 mM, KCl 4.2 mM, NaCl 146 mM, glucose 5.5 mM, LiCl 50 mM, BSA 0.5% at pH 7.4). Ten μl cell solution was pipetted into wells of a white 384-well plate (Perkin Elmer Optiplate) containing 2 μl compound diluted in assay buffer (containing: Hepes 10 mM, MgCl2 0.5 mM, KCl 4.2 mM, NaCl 146 mM, glucose 5.5 mM, LiCl 50 mM, CaCl2 11.4 mM at pH 7.4), resulting in a final Ca^2+ concentration of 1.9 mM. After compound stimulation for 1 hour at 37° C. and 15 min at room temperature, 10 ul of IP-One assay detection reagent (prepared as described by the IP-One assay kit manufacturer) was added and the plate was incubated for another 1 hour at room temperature. Finally the plate was read using a Perkin Elmer EnVision, according to the protocol supplied by the IP-One assay kit manufacturer. The FRET ratio was calculated by dividing the 665 nm emission signal with that of the 615 nm.
The molar concentration of a compound that produces 50% of the maximum agonistic response (the […] value) is calculated according to the equation “General sigmoidal curve with Hill slope, a to d” (Equation 1). This model describes a sigmoidal curve with an adjustable baseline. The equation can be used to fit curves where response is either increasing or decreasing with respect to the independent variable, X. […]
y=(a−d)/(1+(x/c)̂b)+d Equation 1 x=concentration of tested compound […]
a=min response as compound concentration approaches 0 d=max response as concentration of tested compound is increasing […]
b=Hill coefficient or curve slope

One may read the EC50 as the midpoint of the concentration-response curve.

On to `C[C@@H](N[C@H]1CC[C@@H](c2ccc(OCC(=O)NC3CCNCC3)cc2)C1)c1cccc(Cl)c1` [Compound 102, 2-[4-[(1R,3S)-3-[[(1R)-1-(3-Chlorophenyl)ethyl]amino]-cyclopentyl]-phenoxy]-N-(4-piperidyl)-acetamide], for which, in data set [1], the “Clearance (% Eh) in human liver microsomes” value was “A (A: Eh < 33%)”. The EC50 in data set [2] was in the range of 200 to 1000 nM.
